pIC50: −log10 of the molar value.
Biological target: T1, Human IDO1 (Homo sapiens, UniProt P14902)
T1 construct: expressed in transfected cells; host or cells: HEK293
Experiment: IDO Kynurenine Assay with Human IDO1/HEK293 Cells
Assay type: cell-based
Details: read-out: HEK human IDO-1 (IC50)
Outline: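 HEK293 cells stably expressing human IDO1, in phenol red-free RPMI/10% FBS, exposed to compound for 20 h at 37 °C. Stopped with 0.2% TCA (50 °C, 30 min); kynurenine in supernatant detected with Ehrlich reagent, absorbance 490 nm.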

T1 sequence (P14902 whole entry): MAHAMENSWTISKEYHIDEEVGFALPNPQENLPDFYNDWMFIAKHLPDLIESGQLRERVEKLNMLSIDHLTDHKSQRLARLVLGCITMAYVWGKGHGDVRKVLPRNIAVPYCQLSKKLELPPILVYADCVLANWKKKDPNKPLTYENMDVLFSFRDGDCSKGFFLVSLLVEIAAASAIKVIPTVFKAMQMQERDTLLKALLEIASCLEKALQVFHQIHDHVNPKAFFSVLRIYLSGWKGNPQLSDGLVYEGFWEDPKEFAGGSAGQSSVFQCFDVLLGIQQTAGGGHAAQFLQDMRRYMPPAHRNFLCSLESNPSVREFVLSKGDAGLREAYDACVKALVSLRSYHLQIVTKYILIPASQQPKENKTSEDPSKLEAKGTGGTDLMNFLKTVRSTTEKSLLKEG

pIC50 | Compound
8.00 | Cc1ccc(NC(=O)Nc2cc(-c3ccccc3-c3nnn[nH]3)ccc2N2CCC(c3ccccc3)C2)cc1 (racemic) [Example 367, (±)-1-(4-(3-Phenylpyrrolidin-1-yl)-2′-(1H-tetrazol-5-yl)-[1,1′-biphenyl]-3-yl)-3-(p-tolyl)urea]
7.15 | O=C(Nc1ccc(C(F)(F)F)cc1F)Nc1cc(-c2ccccc2-c2nnn[nH]2)ccc1N1CCC(c2ccccc2)C1 (racemic) [Example 370, (±)-1-(2-Fluoro-4-(trifluoromethyl)phenyl)-3-(4-(3-phenylpyrrolidin-1-yl)-2′-(1H-tetrazol-5-yl)-[1,1′-biphenyl]-3-yl)urea]
7.22 | Cc1ccc(NC(=O)Nc2cc(-c3ccccc3-c3nnn[nH]3)ccc2N(CCC(F)(F)F)Cc2cccc(Cl)c2)cc1 [Example 13, 1-(4-((3-Chlorobenzyl)(3,3,3-trifluoropropyl)amino)-2′-(1H-tetrazol-5-yl)-[1,1′-biphenyl]-3-yl)-3-(p-tolyl)urea]
5.26 | CC(C)CN(c1cc(F)c(-c2cc(F)ccc2C(=O)O)cc1NC(=O)Nc1ccc(C2CCCCC2)cc1)C1CCCCC1 [Example 523, 4′-(Cyclohexyl(isobutyl)amino)-5′-(3-(4-cyclohexylphenyl)ureido)-2′,5-difluoro-[1,1′-biphenyl]-2-carboxylic acid]
5.57 | CC(C)CN(c1cc(F)c(-c2cc(F)ccc2C(=O)O)cc1NC(=O)Nc1ccc(N2CCOCC2)cc1)C1CCCCC1 [Example 524, 4′-(Cyclohexyl(isobutyl)amino)-2′,5-difluoro-5′-(3-(4-morpholinophenyl)ureido)-[1,1′-biphenyl]-2-carboxylic acid]
7.05 | Cc1cnc(NC(=O)Nc2cc(-c3cc(F)ccc3C(=O)O)c(F)cc2N(CC(C)C)C2CCCCC2)cn1 [Example 525, 4′-(Cyclohexyl(isobutyl)amino)-2′,5-difluoro-5′-(3-(5-methylpyrazin-2-yl)ureido)-[1,1′-biphenyl]-2-carboxylic acid]
6.62 | Cc1ccc(C(=O)O)c(-c2ccc(N(CC(C)C)CC(C)C)c(NC(=O)Nc3ccccc3F)c2)c1 [Example 526, 4′-(Diisobutylamino)-3′-(3-(2-fluorophenyl)ureido)-5-methyl-[1,1′-biphenyl]-2-carboxylic acid]
7.40 | Cc1ccc(C(=O)O)c(-c2ccc(N(CC(C)C)CC(C)C)c(NC(=O)Nc3ccc(Cl)cc3F)c2)c1 [Example 527, 3′-(3-(4-Chloro-2-fluorophenyl)ureido)-4′-(diisobutylamino)-5-methyl-[1,1′-biphenyl]-2-carboxylic acid]
6.80 | Cc1ccc(C(=O)O)c(-c2ccc(N(CC(C)C)CC(C)C)c(NC(=O)Nc3ccc(F)cc3F)c2)c1 [Example 528, 3′-(3-(2,4-Difluorophenyl)ureido)-4′-(diisobutylamino)-5-methyl-[1,1′-biphenyl]-2-carboxylic acid]
6.41 | CCOc1ccc(NC(=O)Nc2cc(-c3cc(C)ccc3C(=O)O)ccc2N(CC(C)C)CC(C)C)cc1 [Example 529, 4′-(Diisobutylamino)-3′-(3-(4-ethoxyphenyl)ureido)-5-methyl-[1,1′-biphenyl]-2-carboxylic acid]
6.52 | Cc1ccc(NC(=O)Nc2cc(-c3cc(C)ccc3C(=O)O)ccc2N(CC(C)C)CC(C)C)cc1 [Example 530, 4′-(Diisobutylamino)-5-methyl-3′-(3-(p-tolyl)ureido)-[1,1′-biphenyl]-2-carboxylic acid]
7.70 | CC(C)CN(c1cc(F)c(-c2cc(F)ccc2C(=O)O)cc1NC(=O)Nc1ccc2c(c1)OCO2)C1CCC(F)(F)CC1 [Example 531, 5′-(3-(Benzo[d][1,3]dioxol-5-yl)ureido)-4′-((4,4-difluorocyclohexyl)(isobutyl)amino)-2′,5-difluoro-[1,1′-biphenyl]-2-carboxylic acid]
8.32 | CC(C)CN(c1cc(F)c(-c2ccccc2-c2nnn[nH]2)cc1NC(=O)Nc1ccc2c(c1)OCO2)C1CCC(F)(F)CC1 [Example 532, 1-(Benzo[d][1,3]dioxol-5-yl)-3-(4-((4,4-difluorocyclohexyl)(isobutyl)amino)-6-fluoro-2′-(1H-tetrazol-5-yl)-[1,1′-biphenyl]-3-yl)urea]
8.10 | Cc1ccc(NC(=O)Nc2cc(-c3ccccc3C(=O)O)c(F)cc2N(CC(C)C)C2CCC(F)(F)CC2)cc1 [Example 533, 4′-((4,4-Difluorocyclohexyl)(isobutyl)amino)-2′-fluoro-5′-(3-(p-tolyl)ureido)-[1,1′-biphenyl]-2-carboxylic acid]
8.52 | Cc1ccc(NC(=O)Nc2cc(-c3ccccc3-c3nnn[nH]3)c(F)cc2N(CC(C)C)C2CCC(F)(F)CC2)cc1 [Example 534, 1-(4-((4,4-Difluorocyclohexyl)(isobutyl)amino)-6-fluoro-2′-(1H-tetrazol-5-yl)-[1,1′-biphenyl]-3-yl)-3-(p-tolyl)urea]
6.85 | Cc1cc(NC(=O)Nc2cc(-c3cccc(C)c3C(=O)O)ccc2N(CC(C)C)CC(C)C)on1 [Example 535, 4′-(Diisobutylamino)-3-methyl-3′-(3-(3-methylisoxazol-5-yl)ureido)-[1,1′-biphenyl]-2-carboxylic acid]
7.15 | Cc1ccc(NC(=O)Nc2cc(-c3cccc(C)c3C(=O)O)ccc2N(CC(C)C)CC(C)C)cc1 [Example 536, 4′-(Diisobutylamino)-3-methyl-3′-(3-(p-tolyl)ureido)-[1,1′-biphenyl]-2-carboxylic acid]
8.22 | CC(C)CN(c1cc(F)c(-c2ccccc2-c2nnn[nH]2)cc1NC(=O)Nc1ccccc1F)C1CCC(F)(F)CC1 [Example 537, 1-(4-((4,4-Difluorocyclohexyl)(isobutyl)amino)-6-fluoro-2′-(1H-tetrazol-5-yl)-[1,1′-biphenyl]-3-yl)-3-(2-fluorophenyl)urea]
8.00 | CC(C)CN(c1cc(F)c(-c2cc(F)ccc2C(=O)O)cc1NC(=O)Nc1ccccc1F)C1CCC(F)(F)CC1 [Example 538, 4′-((4,4-Difluorocyclohexyl)(isobutyl)amino)-2′,5-difluoro-5′-(3-(2-fluorophenyl)ureido)-[1,1′-biphenyl]-2-carboxylic acid]
8.48 | CCOc1ccc(NC(=O)Nc2cc(-c3ccccc3-c3nnn[nH]3)c(F)cc2N(CC(C)C)C2CCC(F)(F)CC2)cc1 [Example 539, 1-(4-((4,4-Difluorocyclohexyl)(isobutyl)amino)-6-fluoro-2′-(1H-tetrazol-5-yl)-[1,1′-biphenyl]-3-yl)-3-(4-ethoxyphenyl)urea]
8.00 | CCOc1ccc(NC(=O)Nc2cc(-c3cc(F)ccc3C(=O)O)c(F)cc2N(CC(C)C)C2CCC(F)(F)CC2)cc1 [Example 540]
5.46 | Cc1ccc(NC(=O)Nc2cc(-c3cc(F)ccc3C(=O)O)ccc2N(C2CC2)C2CC2)cc1 [Example 541, 4′-(Dicyclopropylamino)-5-fluoro-3′-(3-(p-tolyl)ureido)-[1,1′-biphenyl]-2-carboxylic acid]
6.12 | Cc1ccc(NC(=O)Nc2cc(-c3ccccc3-c3nnn[nH]3)ccc2N(C2CC2)C2CC2)cc1 [Example 542]
5.14 | CCOc1ccc(NC(=O)Nc2cc(-c3cc(F)ccc3C(=O)O)ccc2N(C2CC2)C2CC2)cc1 [Example 543]
5.76 | CCOc1ccc(NC(=O)Nc2cc(-c3ccccc3-c3nnn[nH]3)ccc2N(C2CC2)C2CC2)cc1 [Example 544]
7.22 | CCOc1ccc(NC(=O)Nc2cc(-c3cccc(C)c3C(=O)O)ccc2N(CC(C)C)CC(C)C)cc1 [Example 545]

Biological target: IDO (Homo sapiens, UniProt P14902)
Experiment: LLE_IDO_ABS_DR (IDO assay)
Details: not given

IDO, sequence (P14902 whole entry): as above

pIC50 | Compound
7.70 | Cc1ccc(NC(=O)Nc2cc(-c3ccccc3-c3nnn[nH]3)ccc2N2CCC(c3ccccc3)C2)cc1 (racemic) [Example 367, (±)-1-(4-(3-Phenylpyrrolidin-1-yl)-2′-(1H-tetrazol-5-yl)-[1,1′-biphenyl]-3-yl)-3-(p-tolyl)urea]
7.30 | O=C(Nc1ccc(C(F)(F)F)cc1F)Nc1cc(-c2ccccc2-c2nnn[nH]2)ccc1N1CCC(c2ccccc2)C1 (racemic) [Example 370, (±)-1-(2-Fluoro-4-(trifluoromethyl)phenyl)-3-(4-(3-phenylpyrrolidin-1-yl)-2′-(1H-tetrazol-5-yl)-[1,1′-biphenyl]-3-yl)urea]
7.52 | Cc1ccc(NC(=O)Nc2cc(-c3ccccc3-c3nnn[nH]3)ccc2N(CCC(F)(F)F)Cc2cccc(Cl)c2)cc1 [Example 13, 1-(4-((3-Chlorobenzyl)(3,3,3-trifluoropropyl)amino)-2′-(1H-tetrazol-5-yl)-[1,1′-biphenyl]-3-yl)-3-(p-tolyl)urea]
